This note sets out measurements from patent US12599597B2, “Substituted N-benzhydrylacetamide inhibitors of jumanji domain histone demethylases for the treatment of cancer” (University of Kentucky Research Foundation, priority 2020, dated 2026).

The target of one assay is T1, JMJD1A (KDM3A) (Homo sapiens, UniProt Q9Y4C1).
T1 sequence (Q9Y4C1 1-1321): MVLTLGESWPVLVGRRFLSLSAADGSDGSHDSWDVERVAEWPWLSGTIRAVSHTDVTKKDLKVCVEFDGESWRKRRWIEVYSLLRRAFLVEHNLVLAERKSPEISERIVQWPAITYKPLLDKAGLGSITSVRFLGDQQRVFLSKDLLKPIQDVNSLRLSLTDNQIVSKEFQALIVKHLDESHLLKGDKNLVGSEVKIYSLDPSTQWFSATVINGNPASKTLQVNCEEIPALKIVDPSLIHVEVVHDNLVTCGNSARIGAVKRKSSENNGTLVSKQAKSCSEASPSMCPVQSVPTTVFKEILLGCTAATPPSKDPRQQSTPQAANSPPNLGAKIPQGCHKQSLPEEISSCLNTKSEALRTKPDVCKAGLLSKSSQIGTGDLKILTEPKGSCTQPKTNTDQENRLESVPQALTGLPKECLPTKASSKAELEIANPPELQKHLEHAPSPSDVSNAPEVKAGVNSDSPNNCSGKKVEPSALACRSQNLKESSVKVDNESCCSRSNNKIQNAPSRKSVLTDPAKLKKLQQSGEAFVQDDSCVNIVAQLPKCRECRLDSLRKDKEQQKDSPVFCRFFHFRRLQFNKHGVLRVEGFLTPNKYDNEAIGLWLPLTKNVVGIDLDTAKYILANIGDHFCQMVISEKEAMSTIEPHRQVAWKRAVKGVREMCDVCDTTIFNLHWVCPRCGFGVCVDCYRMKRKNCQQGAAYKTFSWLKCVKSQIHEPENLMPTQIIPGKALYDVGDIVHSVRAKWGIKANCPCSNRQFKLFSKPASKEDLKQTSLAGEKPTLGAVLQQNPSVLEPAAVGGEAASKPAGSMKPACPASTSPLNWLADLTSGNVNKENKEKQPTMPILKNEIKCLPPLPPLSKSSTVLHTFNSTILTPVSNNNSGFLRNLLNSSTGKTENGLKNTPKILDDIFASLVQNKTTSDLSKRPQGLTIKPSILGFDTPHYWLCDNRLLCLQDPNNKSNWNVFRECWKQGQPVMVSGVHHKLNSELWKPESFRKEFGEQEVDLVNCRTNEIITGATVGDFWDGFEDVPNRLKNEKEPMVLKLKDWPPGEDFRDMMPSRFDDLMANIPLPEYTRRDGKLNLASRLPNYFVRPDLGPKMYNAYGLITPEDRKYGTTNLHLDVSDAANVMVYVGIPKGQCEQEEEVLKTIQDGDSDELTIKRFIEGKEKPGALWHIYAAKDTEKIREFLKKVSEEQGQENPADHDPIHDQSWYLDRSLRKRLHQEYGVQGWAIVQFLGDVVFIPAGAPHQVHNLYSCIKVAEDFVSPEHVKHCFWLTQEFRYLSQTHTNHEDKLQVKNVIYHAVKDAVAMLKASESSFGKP
The assay can be described thus: Histone demethylase assay / KDM3A enzymatic activity in vitro. Type of assay: biochemical. The settings on record: for enzymatic activity of KDM3A: FIG. 12C. An excerpt:
(§1) Histone Demethylase Assay
(§2) To further examine the effects of 58B1 on histone demethylase, we screened a panel of purified histone demethylases was screened.
Identification of KDM3A as a target of CBA-1. KDM3A regulated H3K9Me^2 and underwent significant upregulation in CRC. To test if CBA-1 targeted KDM3A, a biotinylated analog CBA-B2 (FIG. 7A) was synthesized. […] Knocking-down KDM3A by shRNA inhibited cell proliferation (FIG. 7D) and Wnt target gene expression in LS174T CRC cells (FIG. 7E).
(§3) Repurposing drugs as CBA-1 analogs and KDM3 inhibitors. CBA-1 is a specific and potent KDM3A inhibitor. As backup candidates, two approved drugs were identified as CBA-1 analogs and KDM3A inhibitors. Based on the docking study (FIGS. 8A-B), the N and OH groups (red color in FIG. 12A) are critical in binding the Mn^2+ in KDM3A. […] A virtual screening was performed and several antibiotics that have similar structures were identified. Two of these antibiotics, clioquinol and nitroxoline (FIG. 12B), indeed inhibited the enzymatic activities of KDM3 (FIGS. 12C and D). These two drugs were tested in LS174T tumor xenograft model in SCID mice. […] Nitroxoline has been used in Europe for over 50 years as an antibiotic. It has anticancer effects, but the mechanism remains unclear.

In a further assay the target is KDM3B (Homo sapiens, UniProt Q7LBC6). The assay can be described thus: KDM3B enzymatic activity. The note with it: FIG. 12D. Format: biochemical.
Description: Other KDM3 members as CBA-1 targets. Inhibition of KDM3A by CBA-1 increased H3K9Me^2 and inhibited Wnt signaling; however, other KDM3 members may also regulate H3K9 methylation. For example, both KDM3B and KDM3C (JMJD1C) regulated Wnt signaling. Given the high similarity of their structures (FIG. 10A), particularly the JmjC domains, it is believed that CBA-1 would inhibit KDM3B and KDM3C as well. […] CBA-1 coordinated with Mn^2+ at a longer distance in KDM3B (3.9 Å) than the distance in KDM3A (2.8 Å) (FIGS. 8B and 10B). This could be one of the reasons that CBA-1 inhibited KDM3A better than KDM3B.
as §3

A further assay concerns LS174T CRC xenografts. In words: LS174T tumor xenograft model in SCID mice. Format: in vivo. The note with it: 50 mg/kg, p.o. How it is done:
FIGS. 12A-E show images and graphs illustrating CBA-1 analogs from antibiotics. (A) Interaction of CBA-1 with Mn^2+. (B) Clioquinol (X=Cl; Y=I) and nitroxoline. (C-D) Inhibition of (C) KDM3A and (D) KDM3B enzymatic activities. (E) CBA-1 analogs (50 mg/kg, p.o.) inhibited LS174T CRC xenografts in SCID mice.
as §3

A further assay has as its target Jarid1B (KDM5B) (Homo sapiens, UniProt Q9UGL1). In words: Histone demethylase assay, purified enzyme panel. Format: biochemical. The settings on record: Reference inhibitor.
Description: as §1, §2

A further assay has as its target UTX (KDM6A) (Homo sapiens, UniProt O15550). In words: Histone demethylase assay, purified enzyme panel. Format: biochemical. The note with it: Reference inhibitor.
Description: as §1, §2

Another assay deals with Wnt signaling. The assay can be described thus: TOPFlash (Wnt) reporter assay in stable HEK293T cell line. Type of assay: cell-based. The settings on record: for Percent inhibition at 1 μM: Table 3, Wnt reporter assay at 1 μM. The text has this: Wnt signaling is a key target for multiple human cancers, including but not limited to colon cancer, liver cancer, and lung cancer. To identify novel Wnt regulators by high throughput screening, a stable HEK293T cell line containing the TOPFlash reporter was established. Since β-catenin is often activated by mutations in the Wnt pathway, it is important to inhibit Wnt signaling downstream of β-catenin activity. Therefore, the screen was specifically designed to identify Wnt inhibitors that target events downstream of β-catenin. The Wnt signaling was activated by treating cells with lithium chloride to inhibit GSK3 and to stabilize β-catenin, mimicking the constitutively active Wnt signaling in cancer cells. Through this screen, a family of novel Wnt inhibitors that inhibited Wnt signaling at a 0.5-10 μM concentrations (Table 1) was identified.
After 6 h, the cells were treated with 25 mM LiCl to activate Wnt signaling. The inhibition ratio of each compound was determined (Table 1).
For the SAR studies, 58B1 (VMS-7-133) was re-synthesized. Additionally, SD70, a commercial KDM4 inhibitor, was both purchased and re-synthesized (VMS-7-175). […] VMS-7-195 is a biotinylated analog of 58B1. […] Specific KDM inhibitors may be used to target specific KDMs, such as KDM3A, which is highly expressed in many human cancers.
Identification of a CBA-1 as a novel Wnt inhibitor. The present inventors routinely use TOPFlash reporter assay for Wnt inhibitor screening. To mimic the constitutively active Wnt signaling found in CRC cells, Wnt signaling was activated by inhibiting GSK3 and stabilizing β-catenin. From screening in house small-molecule libraries, CBA-1 (FIG. 4) was identified that inhibited Wnt signaling in TOPFlash reporter assay. To validate the screening results, CBA-1 was tested in CRC cells.
(In general: Reporter assays use an easily measured gene product as a stand-in for the process of interest.)

Where [1] appears, read: Homo sapiens, HEK-293T, Table 1, HEK293T TOPFlash, 25 mM LiCl after 6 h.

KDM3B, sequence (Q7LBC6 whole entry, the tested form may be a part): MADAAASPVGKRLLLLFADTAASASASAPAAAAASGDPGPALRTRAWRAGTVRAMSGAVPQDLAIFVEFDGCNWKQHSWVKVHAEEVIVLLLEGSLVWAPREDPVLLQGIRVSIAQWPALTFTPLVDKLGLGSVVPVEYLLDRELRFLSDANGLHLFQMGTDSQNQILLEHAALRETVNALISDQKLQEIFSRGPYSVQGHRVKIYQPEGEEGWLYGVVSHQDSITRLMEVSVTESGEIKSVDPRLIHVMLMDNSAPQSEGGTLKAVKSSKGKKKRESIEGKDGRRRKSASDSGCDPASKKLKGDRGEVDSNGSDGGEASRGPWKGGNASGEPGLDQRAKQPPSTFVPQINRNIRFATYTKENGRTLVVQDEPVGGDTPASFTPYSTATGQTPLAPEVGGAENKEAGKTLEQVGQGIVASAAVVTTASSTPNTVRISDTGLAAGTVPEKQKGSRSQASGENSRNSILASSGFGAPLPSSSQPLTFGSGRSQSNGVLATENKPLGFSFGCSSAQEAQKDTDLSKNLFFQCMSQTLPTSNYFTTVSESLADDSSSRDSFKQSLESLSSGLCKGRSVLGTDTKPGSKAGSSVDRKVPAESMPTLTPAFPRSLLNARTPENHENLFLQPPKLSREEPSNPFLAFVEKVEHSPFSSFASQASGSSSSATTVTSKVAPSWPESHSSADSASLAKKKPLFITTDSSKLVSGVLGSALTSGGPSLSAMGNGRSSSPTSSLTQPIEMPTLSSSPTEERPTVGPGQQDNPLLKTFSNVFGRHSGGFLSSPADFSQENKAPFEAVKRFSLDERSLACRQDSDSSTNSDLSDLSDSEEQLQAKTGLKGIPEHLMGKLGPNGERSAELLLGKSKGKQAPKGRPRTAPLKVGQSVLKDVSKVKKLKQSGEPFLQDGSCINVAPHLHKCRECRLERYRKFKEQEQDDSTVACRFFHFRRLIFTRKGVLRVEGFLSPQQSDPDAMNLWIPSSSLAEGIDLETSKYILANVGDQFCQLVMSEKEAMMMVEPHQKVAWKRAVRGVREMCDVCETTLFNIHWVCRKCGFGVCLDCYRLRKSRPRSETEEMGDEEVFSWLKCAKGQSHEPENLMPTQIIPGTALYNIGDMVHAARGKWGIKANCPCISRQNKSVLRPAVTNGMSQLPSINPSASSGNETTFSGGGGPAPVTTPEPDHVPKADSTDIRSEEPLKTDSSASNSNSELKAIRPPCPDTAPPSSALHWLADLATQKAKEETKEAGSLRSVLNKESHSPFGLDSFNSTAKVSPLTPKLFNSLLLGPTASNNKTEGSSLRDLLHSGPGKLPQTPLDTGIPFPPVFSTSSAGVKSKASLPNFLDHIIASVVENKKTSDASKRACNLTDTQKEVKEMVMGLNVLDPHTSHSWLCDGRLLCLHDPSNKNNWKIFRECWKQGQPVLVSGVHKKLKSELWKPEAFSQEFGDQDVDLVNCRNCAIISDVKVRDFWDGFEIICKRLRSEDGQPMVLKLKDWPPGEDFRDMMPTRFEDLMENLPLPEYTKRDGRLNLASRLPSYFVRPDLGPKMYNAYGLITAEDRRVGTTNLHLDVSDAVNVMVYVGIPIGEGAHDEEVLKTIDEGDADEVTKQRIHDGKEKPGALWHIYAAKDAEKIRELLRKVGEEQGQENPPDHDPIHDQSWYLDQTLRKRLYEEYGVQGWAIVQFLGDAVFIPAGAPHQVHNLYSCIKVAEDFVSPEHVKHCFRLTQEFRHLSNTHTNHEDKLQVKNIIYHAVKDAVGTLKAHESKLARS
Jarid1B (KDM5B), sequence (Q9UGL1 whole entry): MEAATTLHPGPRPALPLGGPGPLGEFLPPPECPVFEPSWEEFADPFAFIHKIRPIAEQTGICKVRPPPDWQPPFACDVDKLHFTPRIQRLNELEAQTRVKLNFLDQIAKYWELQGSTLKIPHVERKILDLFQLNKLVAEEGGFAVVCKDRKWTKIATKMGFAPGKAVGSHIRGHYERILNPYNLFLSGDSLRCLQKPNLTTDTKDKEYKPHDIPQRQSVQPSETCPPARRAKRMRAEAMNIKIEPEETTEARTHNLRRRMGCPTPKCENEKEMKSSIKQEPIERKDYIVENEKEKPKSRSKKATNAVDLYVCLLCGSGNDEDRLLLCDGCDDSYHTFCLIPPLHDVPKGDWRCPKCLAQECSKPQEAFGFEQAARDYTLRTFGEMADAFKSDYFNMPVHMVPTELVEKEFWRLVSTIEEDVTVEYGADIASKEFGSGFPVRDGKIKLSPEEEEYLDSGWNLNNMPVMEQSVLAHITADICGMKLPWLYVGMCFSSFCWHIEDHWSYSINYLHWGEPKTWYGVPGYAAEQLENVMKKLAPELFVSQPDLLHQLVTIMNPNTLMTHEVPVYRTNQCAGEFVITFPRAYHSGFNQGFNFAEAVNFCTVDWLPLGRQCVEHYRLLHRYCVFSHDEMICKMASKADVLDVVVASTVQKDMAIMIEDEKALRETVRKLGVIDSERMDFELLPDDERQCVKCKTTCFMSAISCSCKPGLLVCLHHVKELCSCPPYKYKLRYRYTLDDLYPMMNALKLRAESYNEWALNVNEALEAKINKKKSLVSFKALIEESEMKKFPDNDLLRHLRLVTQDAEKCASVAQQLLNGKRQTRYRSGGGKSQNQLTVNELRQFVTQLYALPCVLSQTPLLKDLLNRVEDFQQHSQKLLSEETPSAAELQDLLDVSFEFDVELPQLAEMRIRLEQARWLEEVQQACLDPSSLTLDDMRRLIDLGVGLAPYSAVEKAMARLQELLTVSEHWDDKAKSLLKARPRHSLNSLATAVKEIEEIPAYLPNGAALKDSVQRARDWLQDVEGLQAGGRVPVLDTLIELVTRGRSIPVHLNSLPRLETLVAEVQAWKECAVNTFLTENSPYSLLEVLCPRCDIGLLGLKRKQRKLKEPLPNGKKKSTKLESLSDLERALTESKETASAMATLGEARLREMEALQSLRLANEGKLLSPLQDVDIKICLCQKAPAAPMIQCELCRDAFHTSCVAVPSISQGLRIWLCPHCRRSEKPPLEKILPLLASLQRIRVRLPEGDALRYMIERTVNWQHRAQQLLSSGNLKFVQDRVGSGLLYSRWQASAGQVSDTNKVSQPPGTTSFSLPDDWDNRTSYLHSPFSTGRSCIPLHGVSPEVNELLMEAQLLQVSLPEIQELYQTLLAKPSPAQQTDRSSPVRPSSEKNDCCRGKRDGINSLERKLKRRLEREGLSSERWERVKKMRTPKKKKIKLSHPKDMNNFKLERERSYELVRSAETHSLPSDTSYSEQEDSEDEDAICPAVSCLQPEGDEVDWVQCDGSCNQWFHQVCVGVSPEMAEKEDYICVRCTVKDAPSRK
UTX (KDM6A), sequence (O15550 whole entry): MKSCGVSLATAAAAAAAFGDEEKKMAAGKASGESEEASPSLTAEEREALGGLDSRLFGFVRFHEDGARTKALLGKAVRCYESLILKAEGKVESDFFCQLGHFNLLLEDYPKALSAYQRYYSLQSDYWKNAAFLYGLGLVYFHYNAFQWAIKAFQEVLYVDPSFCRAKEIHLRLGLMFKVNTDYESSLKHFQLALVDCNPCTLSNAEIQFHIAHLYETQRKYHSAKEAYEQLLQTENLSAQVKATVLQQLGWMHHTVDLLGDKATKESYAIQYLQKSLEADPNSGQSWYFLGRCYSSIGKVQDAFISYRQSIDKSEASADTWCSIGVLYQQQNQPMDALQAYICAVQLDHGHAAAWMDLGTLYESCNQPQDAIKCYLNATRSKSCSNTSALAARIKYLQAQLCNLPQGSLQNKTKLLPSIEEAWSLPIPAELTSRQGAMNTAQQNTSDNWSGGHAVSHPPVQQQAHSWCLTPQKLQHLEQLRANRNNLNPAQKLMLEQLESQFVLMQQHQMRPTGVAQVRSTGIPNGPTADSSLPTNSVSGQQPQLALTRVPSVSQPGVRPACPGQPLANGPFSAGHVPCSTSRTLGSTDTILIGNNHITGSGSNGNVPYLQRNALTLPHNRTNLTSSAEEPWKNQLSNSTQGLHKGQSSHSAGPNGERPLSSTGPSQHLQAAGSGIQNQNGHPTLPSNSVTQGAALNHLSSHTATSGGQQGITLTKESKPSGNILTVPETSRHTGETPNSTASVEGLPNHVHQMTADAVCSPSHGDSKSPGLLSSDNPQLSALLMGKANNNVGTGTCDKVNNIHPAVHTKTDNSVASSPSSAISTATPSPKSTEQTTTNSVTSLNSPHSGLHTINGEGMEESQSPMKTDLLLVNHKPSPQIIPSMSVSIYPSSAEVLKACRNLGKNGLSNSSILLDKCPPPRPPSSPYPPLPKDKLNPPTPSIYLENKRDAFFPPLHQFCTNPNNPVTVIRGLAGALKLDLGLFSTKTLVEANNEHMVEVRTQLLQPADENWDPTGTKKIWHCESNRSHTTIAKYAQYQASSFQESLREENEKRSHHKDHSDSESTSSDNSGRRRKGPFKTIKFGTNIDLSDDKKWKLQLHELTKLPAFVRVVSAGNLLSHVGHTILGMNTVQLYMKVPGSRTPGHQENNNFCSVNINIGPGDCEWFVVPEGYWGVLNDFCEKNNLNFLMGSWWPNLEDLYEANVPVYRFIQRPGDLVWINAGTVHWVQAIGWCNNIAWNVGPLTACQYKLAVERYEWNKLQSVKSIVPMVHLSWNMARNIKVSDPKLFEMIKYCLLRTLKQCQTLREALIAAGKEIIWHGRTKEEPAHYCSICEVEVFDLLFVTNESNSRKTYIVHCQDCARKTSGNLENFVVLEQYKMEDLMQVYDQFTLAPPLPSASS

With `Oc1c(I)cc(Cl)c2cccnc12` [clioquinol], on JMJD1A (KDM3A), the “enzymatic activity of KDM3A” value is “inhibited”. The “enzymatic activity of KDM3B” value on KDM3B was “inhibited”. Besides, the tumor growth result in the assay on LS174T CRC xenografts was “inhibited tumor growth”.
Regarding `O=[N+]([O-])c1ccc(O)c2ncccc12` [nitroxoline], the “enzymatic activity of KDM3A” value on JMJD1A (KDM3A) is recorded as “inhibited”. Also, at KDM3B, the “enzymatic activity of KDM3B” value was “inhibited”. In addition, the tumor growth entry in the assay with LS174T CRC xenografts is given as “inhibited tumor growth”.
As a reminder, the % Inhibition is the relative decrease from the control value, in per cent. A high value points to a strong effect. On to `O=C(O)CCNc1cc(N2CCc3ccccc3CC2)nc(-c2ccccn2)n1` [GSK-J1, reference compound], for which the “% Inhibition” value at Jarid1B (KDM5B) and on UTX (KDM6A) was 100% each time.
`CCCC(=O)NC(c1ccc(N2CCC(C(=O)OCC)CC2)cc1)c1cc(Cl)c2cccnc2c1O` (centres unmarked) [VMS-7-183]: in the assay on Wnt signaling, the “Percent inhibition at 1 μM” value was 85.6%.
As usually defined, the inhibition is the share of the control response that was lost under treatment. Read a low inhibition as little suppression. In the case of `CCCC(=O)NC(c1ccco1)c1cc(Cl)c2cccnc2c1O` (centres unmarked) [48M1], the inhibition in the assay on Wnt signaling (setting [1]) was 82%.
In the assay with Wnt signaling (setting [1]), `CCCC(=O)NC(c1ccc(N(C)C)cc1)c1cc(Cl)c2cccnc2c1O` (centres unmarked) [58F8] yielded an inhibition of 88%.
In turn, `CC(=O)NC(c1ccc(Cl)cc1)c1cc([N+](=O)[O-])c2cccnc2c1O` (centres unmarked) [58H8] had an inhibition at 2.5 µM in the assay with Wnt signaling (Homo sapiens, HEK-293T, Table 1, HEK293T TOPFlash, 2.5 µM of each compound, 25 mM LiCl after 6 h) of 80%.
In the assay with Wnt signaling (setting [1]), `CC(=O)NC(c1ccc(N(C)C)cc1)c1cc(Cl)c2cccnc2c1O` (centres unmarked) [58D8] yielded an inhibition of 90%.
As to `CC(C)C(=O)NC(c1ccco1)c1ccc2cccnc2c1O` (centres unmarked) [SD70, reference compound], the “Percent inhibition at 1 μM” value in the assay with Wnt signaling (1 µM) is given as 53.8%; in the assay with Wnt signaling (listed as VMS-7-175, 1 µM) it was 49.7%.
Take `Clc1ccc(N/N=C(\c2ccccc2)c2ccccn2)nc1` [JIB-04]: the “% Inhibition” value on JMJD1A (KDM3A) (Reference inhibitor) is 100%.
Take `CCC(=O)NC(c1ccco1)c1cc(Cl)c2cccnc2c1O` (centres unmarked) [58B6]: the inhibition with Wnt signaling (setting [1]) was determined as 73%.
